Laboratory results from US20240317749A1, “THERAPEUTIC COMPOUNDS” (priority 2021, published 2024).
Values after ≈ are worked out from the molar mass of the structure shown.

Legend:
[1] = system: N. gonorrhoeae ATCC 49226; assay: MIC assay for N. gonorrhoeae, broth microdilution in Todd-Hewitt (TH) broth; format: cell-based; details: Neisseria gonorrhoeae, ATCC49226; Antibacterial Activity against N. gonorrhoeae ATCC 49226 in TH
Excerpt: MIC assays for N. gonorrhoeae were done using the ATCC 49226 strain. The procedure guidelines recommended by the Clinical and Laboratory Standards Institute (CLSI) for the broth microdilution MIC assay were modified by substituting […]. Also, the recommended bacterial inoculum was modified to meet the high inoculum demands needed for N. gonorrhoeae growth. A 96-well plate containing TH broth with 2-fold serial dilution of compounds was inoculated with log-phase bacterial at 2.5×10^7 CFU/mL. The final volume in each well was 200 μL. Each compound was tested in duplicate. The microtiter plates were incubated in an […] environment for 24 hours at 37° C. using the candle jar technique. Then the bacterial growth was tested by reading the plate with a SpectraMax iD5 plate reader (Molecular Devices, Inc.) at 600 nm. The MIC was defined as the lowest compound concentration that inhibited bacteria growth.

[2] = system: Methicillin-resistant S. aureus (MRSA) ATCC 33591; assay: MIC assay, CLSI broth microdilution in CAMH broth; format: cell-based, Staphylococcus aureus
Procedure: MIC assays for various Gram-negative and Gram-positive strains were conducted in accordance with the CLSI guidelines for broth microdilution. A 96-well plate containing CAMH broth with 2-fold serial dilution of compounds was inoculated with log-phase bacterial at 5×10^5 CFU/mL. The final volume in each well was 100 μL. Each compound was tested in duplicate. The microtiter plates were incubated in an aerobic environment for 18 hours at 37° C. Then the bacterial growth was tested by reading the plate with a SpectraMax iD5 plate reader (Molecular Devices, Inc.) at 600 nm. The MIC was defined as the lowest compound concentration that inhibited bacteria growth. […]

[3] = system: Methicillin-susceptible S. aureus (MSSA) ATCC 19636; assay: MIC assay, CLSI broth microdilution in CAMH broth; format: cell-based, Staphylococcus aureus
Procedure: (§1) MIC assays for various Gram-negative and Gram-positive strains were conducted in accordance with the CLSI guidelines for broth microdilution. A 96-well plate containing CAMH broth with 2-fold serial dilution of compounds was inoculated with log-phase bacterial at 5×10^5 CFU/mL. The final volume in each well was 100 μL. Each compound was tested in duplicate. The microtiter plates were incubated in an aerobic environment for 18 hours at 37° C. Then the bacterial growth was tested by reading the plate with a SpectraMax iD5 plate reader (Molecular Devices, Inc.) at 600 nm. The MIC was defined as the lowest compound concentration that inhibited bacteria growth.
(§2) The following Gram-negative and Gram-positive strains were used in the aerobic MIC procedure: • P. aeruginosa ATCC 27853 • A. baumannii ATCC 19606 • E. coli ATCC 25922 • E. coli W4573 • E. coli N43 • K. pneumoniae ATCC 10031 • K. pneumoniae ATCC 13883 • S. sonnei ATCC 29930 • P. mirabilis ATCC 29906 • Methicillin-susceptible S. aureus (MSSA) ATCC 19636 • Methicillin-resistant S. aureus (MRSA) ATCC 33951

[4] = system: P. mirabilis ATCC 29906; assay: MIC assay, CLSI broth microdilution in CAMH broth; format: cell-based, Proteus mirabilis
Procedure: as §1, §2

Question: For `N#Cc1ccccc1-c1ccc(Cn2ccc3c4nc(N)nc(N)c4ccc32)cc1` [Example 19, 4′-((2,4-diamino-7H-pyrrolo[2,3-h]quinazolin-7-yl)methyl)-[1,1′-biphenyl]-2-carbonitrile], which MIC [1] is on record?
Answer: The MIC was 0.25 µg/mL (≈ 0.64 µM).

Question: Which “Intrinsic MIC in CAMH” value [2] does the source give for `Nc1nc(N)c2c(Br)cc3c(ccn3Cc3cccc(Br)c3)c2n1` [Example 47, 5-bromo-7-(3-bromobenzyl)-7H-pyrrolo[2,3-h]quinazoline-2,4-diamine] here?
Answer: Its value is 4¤.

Question: And the “Intrinsic MIC in CAMH” value [3]?
Answer: The value was 4¤.

Question: What about the “Intrinsic MIC in CAMH” value [4] of the same compound?
Answer: The value was 8¤.

Question: `CC(C)=CCn1ccc2c3nc(N)nc(N)c3ccc21` [Example 25, 7-(3-methylbut-2-en-1-yl)-7H-pyrrolo[2,3-h]quinazoline-2,4-diamine] was tested. Which MIC [1] did it give?
Answer: The MIC was 4 µg/mL (≈ 15 µM).

Question: How did the MIC [1] turn out when `Nc1nc(N)c2ccc3c(ccn3CC3CC3)c2n1` [Example 28, 7-(cyclopropylmethyl)-7H-pyrrolo[2,3-h]quinazoline-2,4-diamine] was run?
Answer: The MIC was 8 µg/mL (≈ 31.6 µM).

Question: How did the MIC [1] turn out when `Nc1nc(N)c2ccc3c(ccn3Cc3ccc(C(F)(F)F)c(F)c3)c2n1` [Example 11, 7-(3-fluoro-4-(trifluoromethyl)benzyl)-7H-pyrrolo[2,3-h]quinazoline-2,4-diamine] was run?
Answer: The MIC was 4 µg/mL (≈ 10.7 µM).

Question: How did the MIC [1] turn out when `Cc1cc2c3nc(N)nc(N)c3ccc2n1Cc1nc2ccccc2s1` [Example 33, 7-(benzo[d]thiazol-2-ylmethyl)-8-methyl-7H-pyrrolo[2,3-h]quinazoline-2,4-diamine] was run?
Answer: Its MIC is 8 µg/mL (≈ 22.2 µM).

Question: For `N#Cc1ccccc1-c1ccc(Cn2ccc3c4nc(N)nc(N)c4ccc32)c(F)c1F` [Example 40, 4′-((2,4-diamino-7H-pyrrolo[2,3-h]quinazolin-7-yl)methyl)-2′,3′-difluoro-[1,1′-biphenyl]-2-carbonitrile], which “Intrinsic MIC in CAMH” value [2] is on record?
Answer: Its value is ≤0.063¤.

Question: What about the “Intrinsic MIC in CAMH” value [3] of the same compound?
Answer: Its value is 0.25¤.

Question: What about the “Intrinsic MIC in CAMH” value [4] of the same compound?
Answer: Its value is >64¤.

Question: Which MIC [1] does the source give for `Cc1cc2c3nc(N)nc(N)c3ccc2n1Cc1ccc(-c2ccccc2-c2nnn[nH]2)cc1` [Example 32, 7-((2′-(1H-tetrazol-5-yl)-[1,1′-biphenyl]-4-yl)methyl)-8-methyl-7H-pyrrolo[2,3-h]quinazoline-2,4-diamine] here?
Answer: Its MIC is greater than 64 µg/mL.

Question: `Nc1nc(N)c2ccc3c(ccn3Cc3cccc(-c4ccccc4)c3)c2n1` [Example 18, 7-([1,1′-biphenyl]-3-ylmethyl)-7H-pyrrolo[2,3-h]quinazoline-2,4-diamine] was tested. Which MIC [1] did it give?
Answer: Its MIC is 16 µg/mL (≈ 43.8 µM).

Question: For `CC(C)c1ccc(Cn2ccc3c4nc(N)nc(N)c4ccc32)cc1` [Example 10, 7-(4-isopropylbenzyl)-7H-pyrrolo[2,3-h]quinazoline-2,4-diamine], which MIC [1] is on record?
Answer: Its MIC is 4 µg/mL (≈ 12.1 µM).

Question: `N#Cc1ccc(Cn2ccc3c4nc(N)nc(N)c4ccc32)cc1` [Example 5, 4-((2,4-diamino-7H-pyrrolo[2,3-h]quinazolin-7-yl)methyl)benzonitrile] was tested. Which MIC [1] did it give?
Answer: The MIC was 16 µg/mL (≈ 50.9 µM).

Question: For `Nc1nc(N)c2ccc3c(ccn3Cc3cc(Cl)ccc3Cl)c2n1` [Example 13, 7-(2,5-dichlorobenzyl)-7H-pyrrolo[2,3-h]quinazoline-2,4-diamine], which MIC [1] is on record?
Answer: The MIC was 16 µg/mL (≈ 44.7 µM).

Question: How did the MIC [1] turn out when `Cn1c(Cn2ccc3c4nc(N)nc(N)c4ccc32)nc2ccccc21` [Example 23, 7-((1-methyl-1H-benzo[d]midazole-2-yl)methyl)-7H-pyrrolo[2,3-h]quinazoline-2,4-diamine] was run?
Answer: The MIC was greater than 64 µg/mL.

Question: `Nc1nc(N)c2ccc3c(ccn3Cc3cc(Cl)ccc3F)c2n1` [Example 12, 7-(5-chloro-2-fluorobenzyl)-7H-pyrrolo[2,3-h]quinazoline-2,4-diamine] was tested. Which MIC [1] did it give?
Answer: Its MIC is 4 µg/mL (≈ 11.7 µM).

Question: Which MIC [1] does the source give for `Nc1nc(N)c2ccc3c(ccn3Cc3ccc(-c4ccccc4)cc3)c2n1` [Example 17, 7-([1,1′-biphenyl]-4-ylmethyl)-7H-pyrrolo[2,3-h]quinazoline-2,4-diamine] here?
Answer: The MIC was 8 µg/mL (≈ 21.9 µM).

Question: Which “Intrinsic MIC in CAMH” value [2] does the source give for `Nc1nc(NCc2cccc(Br)c2)nc2c1c(Br)cc1c2ccn1Cc1cccc(Br)c1` [Example 48, 5-bromo-N^2,7-bis(3-bromobenzyl)-7H-pyrrolo[2,3-h]quinazoline-2,4-diamine] here?
Answer: The value was >64¤.

Question: And the “Intrinsic MIC in CAMH” value [3]?
Answer: Its value is >64¤.

Question: What about the “Intrinsic MIC in CAMH” value [4] of the same compound?
Answer: The value was >64¤.

Question: How did the MIC [1] turn out when `Nc1nc(N)c2ccc3c(ccn3Cc3ccc(Br)cn3)c2n1` [Example 22, 7-((5-bromopyridin-2-yl)methyl)-7H-pyrrolo[2,3-h]quinazoline-2,4-diamine] was run?
Answer: Its MIC is 16 µg/mL (≈ 43.3 µM).

Question: `Nc1nc(N)c2ccc3c(ccn3C(=O)c3ccccc3)c2n1` [Example 29, (2,4-diamino-7H-pyrrolo[2,3-h]quinazolin-7-yl)(phenyl)methanone] was tested. Which MIC [1] did it give?
Answer: Its MIC is 32 µg/mL (≈ 105 µM).

Question: For `C#Cc1ccc(Cn2ccc3c4nc(N)nc(N)c4cnc32)cc1` [Example 53, 7-(4-ethynylbenzyl)-7H-pyrrolo[3′,2′:5,6]pyrido[4,3-d]pyrimidine-2,4-diamine], which “Intrinsic MIC in CAMH” value [2] is on record?
Answer: Its value is ≤0.063¤.

Question: And the “Intrinsic MIC in CAMH” value [3]?
Answer: The value was ≤0.063¤.

Question: And the “Intrinsic MIC in CAMH” value [4]?
Answer: Its value is >64¤.

Question: With `Nc1nc(N)c2ccc3c(ccn3Cc3cccc(C(F)(F)F)c3)c2n1` [Example 8, 7-(3-(trifluoromethyl)benzyl)-7H-pyrrolo[2,3-h]quinazoline-2,4-diamine] as the compound, how does the MIC [1] read?
Answer: The MIC was 8 µg/mL (≈ 22.4 µM).

Question: With `Nc1nc(N)c2ccc3c(ccn3Cc3ccc(Oc4ccccc4)cc3)c2n1` [Example 15, 7-(4-phenoxybenzyl)-7H-pyrrolo[2,3-h]quinazoline-2,4-diamine] as the compound, how does the MIC [1] read?
Answer: Its MIC is 8 µg/mL (≈ 21 µM).

Question: Which results are given for `CN[C@H](CC(C)C)C(=O)N[C@H]1C(=O)N[C@@H](CC(N)=O)C(=O)N[C@H]2C(=O)N[C@H]3C(=O)N[C@H](C(=O)N[C@H](C(=O)O)c4cc(O)cc(O)c4-c4cc3ccc4O)[C@H](O)c3ccc(c(Cl)c3)Oc3cc2cc(c3O[C@@H]2O[C@H](CO)[C@@H](O)[C@H](O)[C@H]2O[C@H]2C[C@](C)(N)[C@H](O)[C@H](C)O2)Oc2ccc(cc2Cl)[C@H]1O` [VAN, reference compound]?
Answer: Intrinsic MIC in CAMH [2]: 2¤; Intrinsic MIC in CAMH [3]: 2¤

Question: `COC(=O)c1ccc(-c2ccc(Cn3ccc4c5nc(N)nc(N)c5ccc43)cc2)cc1` [Example 20, methyl 4′-((2,4-diamino-7H-pyrrolo[2,3-h]quinazolin-7-yl)methyl)-[1,1′-biphenyl]-4-carboxylate] was tested. Which MIC [1] did it give?
Answer: Its MIC is greater than 32 µg/mL.

Question: How did the MIC [1] turn out when `Nc1nc(N)c2ccc3c(ccn3Cc3nc(-c4ccccc4)cs3)c2n1` [Example 24, 7-((4-phenylthiazol-2-yl)methyl)-7H-pyrrolo[2,3-h]quinazoline-2,4-diamine] was run?
Answer: The MIC was 4 µg/mL (≈ 10.7 µM).

Question: `N#Cc1ccccc1-c1ccc(CNc2nc(N)c3cnc4c(ccn4Cc4ccc(-c5ccccc5C#N)c(F)c4)c3n2)cc1F` [Example 52, 4′-((4-amino-2-(((2′-cyano-2-fluoro-[1,1′-biphenyl]-4-yl)methyl)amino)-7H-pyrrolo[3′,2′:5,6]pyrido[4,3-d]pyrimidin-7-yl)methyl)-2′-fluoro-[1,1′-biphenyl]-2-carbonitrile] was tested. Which “Intrinsic MIC in CAMH” value [2] did it give?
Answer: Its value is >64¤.

Question: And the “Intrinsic MIC in CAMH” value [3]?
Answer: Its value is >64¤.

Question: What about the “Intrinsic MIC in CAMH” value [4] of the same compound?
Answer: The value was >64¤.

Question: For `N#Cc1ccccc1-c1ccc(Cn2ccc3c4nc(N)nc(N)c4c(Br)cc32)cc1F` [Example 46, 4′-((2,4-diamino-5-bromo-7H-pyrrolo[2,3-h]quinazolin-7-yl)methyl)-2′-fluoro-[1,1′-biphenyl]-2-carbonitrile], which “Intrinsic MIC in CAMH” value [2] is on record?
Answer: Its value is 2¤.

Question: What about the “Intrinsic MIC in CAMH” value [3] of the same compound?
Answer: The value was 4¤.

Question: What about the “Intrinsic MIC in CAMH” value [4] of the same compound?
Answer: The value was >64¤.

Question: For `Nc1nc(N)c2ccc3c(ccn3Cc3ccc(OC(F)(F)F)cc3)c2n1` [Example 9, 7-(4-(trifluoromethoxy)benzyl)-7H-pyrrolo[2,3-h]quinazoline-2,4-diamine], which MIC [1] is on record?
Answer: Its MIC is 16 µg/mL (≈ 42.9 µM).

Question: Which MIC [1] does the source give for `Cc1cc2c3nc(N)nc(N)c3ccc2n1Cc1cccc(Br)c1` [Example 30, 7-(3-bromobenzyl)-8-methyl-7H-pyrrolo[2,3-h]quinazoline-2,4-diamine] here?
Answer: The MIC was 16 µg/mL (≈ 41.9 µM).

Question: For `COc1cc(Cn2ccc3c4nc(N)nc(N)c4ccc32)cc(OC)c1` [Example 14, 7-(3,5-dimethoxybenzyl)-7H-pyrrolo[2,3-h]quinazoline-2,4-diamine], which MIC [1] is on record?
Answer: Its MIC is greater than 64 µg/mL.

Question: `Nc1nc(N)c2ccc3c(ccn3Cc3ccccc3)c2n1` [Example 1, 7-benzyl-7H-pyrrolo[2,3-h]quinazoline-2,4-diamine] was tested. Which MIC [1] did it give?
Answer: Its MIC is 8 µg/mL (≈ 27.6 µM).

Question: With `N#Cc1ccccc1-c1ccc(Cn2ccc3c4nc(N)nc(N)c4cnc32)cc1F` [Example 51, 4′-((2,4-diamino-7H-pyrrolo[3′,2′:5,6]pyrido[4,3-d]pyrimidin-7-yl)methyl)-2′-fluoro-[1,1′-biphenyl]-2-carbonitrile] as the compound, how does the “Intrinsic MIC in CAMH” value [2] read?
Answer: The value was ≤0.063¤.

Question: What about the “Intrinsic MIC in CAMH” value [3] of the same compound?
Answer: Its value is ≤0.063¤.

Question: And the “Intrinsic MIC in CAMH” value [4]?
Answer: Its value is >64¤.
